The data set can be described thus: gradient 5% acetonitrile 3 min, to 50% in 2 min, to 85% in 15 min, held 3 min, 100 µL/min. As to conditions: column: Zorbax Extend-C18 2.1 x 50 mm; eluents: water / acetonitrile, 0.1% formic acid. A digest of the protocol:
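Retention times of pure standards were taken from adduct peaks that were selected by computer and manually inspected. Over 3 months, mixtures of ~100 molecules were run by HPLC–quadrupole time-of-flight mass spectrometry in positive and negative ionization mode. The Zorbax Extend-C18 column (2.1 × 50 mm, 1.8 μm) ran at 100 μL/min in water and acetonitrile, each containing 0.1% formic acid, with 40 μL dead volume and 900 μL dwell volume.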
As to `CCOCCCNC(=O)C(C)n1c(=O)c(C(F)(F)F)nc2cc(C)c(C)cc21` (centres undefined), the RP-LC retention time was determined as 1080 s.
Then `CCc1cccc(NC(=O)N2CCN(c3cc(C)nc(N4CCCC4)n3)CC2)c1`, with 704 s; and `Cn1nc(-c2nnc(-c3ccccc3)o2)c2c1CCN(S(=O)(=O)c1cccc(Cl)c1)C2`, with 990 s.
The result for `CSc1cccc(NC(=O)N2CCC[C@@H]2C(=O)NCc2csc(-c3ccccc3)n2)c1` reads 888 s; that for `N#Cc1ccc(C(=O)N2CCCC2c2nc(-c3cccc(C(F)(F)F)c3)no2)c(F)c1` (centres undefined), 1060 s; that for `COCC(C)(O)CNC(=O)Nc1cccs1` (centres undefined), 594 s.
`CCOC(=O)CNC(=O)N1CCN(c2nc3ccccc3nc2C(F)(F)F)CC1`: the RP-LC retention time was 881 s.
Molecule `CC(=O)Nc1cc(C(=O)NCc2ccccc2C)c2ccc(C)nc2c1` came in with an RP-LC retention time of 610 s.
With `COc1ccccc1NC(=O)N1CCCC1c1cc(C(C)C)on1` (centres undefined), the RP-LC retention time came to 950 s.
Then `O=c1c2sccc2n(Cc2nc(-c3cccc(Br)c3)no2)c(=O)n1-c1cccc(F)c1`, with 1080 s; and `COc1cc(C(CC(=O)N2CCCC2)N2Cc3ccccc3C2=O)cc(OC)c1OC` (centres undefined), with 661 s.
The result for `Cc1ccc(NC(=O)C2CCN(S(=O)(=O)c3cn(C(C)C)cn3)CC2)cc1Cl` reads 883 s.
`CCNC(=O)N1CCc2nc(OCC)ccc2C1` registered an RP-LC retention time of 606 s.
Regarding `COCC(=O)N1CCc2c([nH]c3ccccc23)C1c1ccc(SC)cc1` (centres undefined), the RP-LC retention time was 998 s.
The result for `Cc1ccccc1CNC(=O)Cc1csc2nc(-c3ccccc3)cn12` reads 792 s; that for `O=C(c1ccco1)N1c2ccccc2CC1c1nnc(C2CCOCC2)o1` (centres undefined), 729 s; that for `COc1ccc(NC(=O)N2CCC3(C2)C(=O)Nc2ccccc23)cc1OC` (centres undefined), 676 s.
As to `COc1ccc(C2Cn3nnc(-c4nc(-c5ccccc5)no4)c3CO2)cc1` (centres undefined), the RP-LC retention time was 1100 s.
The result for `CCOC(=O)c1oc2ccc(S(=O)(=O)N3CCCC(CN4CCCC4)CC3)cc2c1C` (centres undefined) reads 733 s; that for `CCN1CCN(CCNC(=O)c2nc3ccccn3c2-c2ccc(Cl)cc2)CC1`, 782 s.
As to `CCC(=O)N1N=C(c2cccc(NS(=O)(=O)CC)c2)CC1c1cccc([N+](=O)[O-])c1` (centres undefined), the RP-LC retention time was found to be 651 s.
Then `Cc1ccc(NC(=O)NCCn2c(-c3ccncc3)nc3cccnc32)c(Cl)c1`, with 652 s; and `Cc1cccc(NC(=O)c2ccc(N3CCCC3)nn2)n1`, with 612 s; and `O=C(c1cccs1)N1CCCn2cc(-c3ccccc3F)nc21`, with 666 s.
For the molecule `O=C(O)c1cc2c([nH]c1=O)CCCC2O` (centres undefined), the RP-LC retention time was 516 s.
The result for `O=S(=O)(Nc1ccc(F)cc1F)c1ccc2c(c1)-c1oncc1CO2` reads 873 s.
The result for `CCc1nnc(-c2cc(C)n(CC(=O)Nc3cc(C)ccc3C)c2C)o1` reads 789 s; that for `CCOC(=O)c1nc(NCCc2cc(OC)ccc2OC)c2ccccc2n1`, 768 s; that for `O=C(Cn1c(=O)c2cccn2c2ccc(F)cc21)NCc1cccc(Br)c1`, 903 s.
For the molecule `Cn1cnc2c(C(=O)NC3CCCCCC3)nn(-c3ccccc3)c2c1=O`, the RP-LC retention time stood at 910 s.
The result for `CCc1ccc(CNC(=O)c2nnc(-c3ccc(S(=O)(=O)N(C)C)cc3)o2)cc1` reads 959 s.
With `O=C(CS(=O)(=O)Cc1ccccc1)Nc1nc(-c2ccccc2)cs1`, the RP-LC retention time is 956 s.
Molecule `CCN(CC)C(=O)c1ccc(-c2nc3cc(NS(=O)(=O)c4ccc(F)c(C)c4)ccc3n2C)cc1` came in with an RP-LC retention time of 722 s.
Then `COc1cc(C(=O)Nc2noc3ncccc23)cc(OC)c1OC`, with 620 s.
Then `COc1ccc(C2C(C(=O)NC3CCCCCC3)CCC(=O)N2c2ccc(OC)cc2)cc1` (centres undefined), with 807 s; and `CC(C)Cn1cc(CCNC(=O)Nc2ccc(C(F)(F)F)cc2)c2cccnc21`, with 970 s.
Turning to `COc1ccc2c(c1)C=C(C(=O)NC1CCCC1)C=CO2`, the RP-LC retention time amounted to 918 s.
The result for `COc1cc(OC)cc(N2C(=O)C3N=NN(Cc4nc(-c5ccc(OC)cc5OC)no4)C3C2=O)c1` (centres undefined) reads 865 s; that for `Cc1nc(-c2cccnc2)nc2c1CCC(=O)N2Cc1cccs1`, 740 s.
Take `O=C(NCCN1CCCCCC1)c1nc(-c2ccnc(N3CCCCC3)c2)no1`: the RP-LC retention time was 577 s.
Then `CCCOc1nccnc1NC1CCN(C(=O)c2ccco2)CC1`, with 748 s; and `CCN1C(=O)c2cc(C(=O)N3CCN(c4ncccn4)CC3)nn2CC1(C)C(=O)NC1CCCC1` (centres undefined), with 691 s; and `Cc1cc(Cl)ccc1NC(=O)C1CCN(c2c(C(=O)N3CCOCC3)cnc3snc(C)c23)CC1`, with 847 s.
The result for `O=C(NC1CCCCC1)c1ccc(CN2C(=O)C3CCCN3C(=O)c3ccccc32)cc1` (centres undefined) reads 770 s; that for `CC1CCN(C(=O)c2nc(-c3ccnc(N4CCCC4)c3)no2)CC1`, 684 s; that for `COC(=O)c1c(NCCO)c2cc(F)ccc2[nH]c1=O`, 590 s.
The result for `Cn1c(=O)c(N2CCCC(C(=O)NCCc3ccco3)C2)nc2cccnc21` (centres undefined) reads 827 s; that for `Cn1nccc1C(=O)N1CCC(c2nc(-c3ccc(F)cc3)no2)CC1`, 811 s.
`Cc1ccccc1-c1noc(CN2N=NC3C(=O)N(c4ccc(F)c(F)c4)C(=O)C32)n1` (centres undefined) displayed an RP-LC retention time of 804 s.
As for `COC(=O)c1ccc2c(=O)n(-c3cccc(Cl)c3)c(N3CCSC3)nc2c1`, the RP-LC retention time stood at 1110 s.
Then `CCOC1CCOC2(CCN(C(=O)c3ccoc3)CC2)C1` (centres undefined), with 686 s.
The result for `Cc1cc(C)nc(N2CCN(c3c4c(nc5c(-c6ccccc6)c(C)nn35)CCC4)CC2)n1` reads 1210 s; that for `CCc1cccc(N(C)C(N)=Nc2cccc3ccccc23)c1`, 846 s.
Then `CCc1ccc(CNC(=O)Cc2c(C(=O)O)c(C)cn2C)cc1`, with 815 s; and `Cc1sc(NC(=O)COc2ccc(Cl)cc2)nc1-c1ccc2c(c1)NC(=O)CO2`, with 873 s.
In the case of `O=C(CCc1cc(Cl)no1)N1CCCCC1c1noc(COCC2CC2)n1` (centres undefined), the RP-LC retention time was 934 s.
Then `Cc1ccc(NC(=O)COc2cc(C)nc(N3CCN(c4ccccc4)CC3)n2)cc1`, with 852 s; and `Cc1cc2nn(CC(=O)Nc3cccc(F)c3)c(=O)n2c(Nc2ccc(F)cc2)n1`, with 981 s.
Then `CCCNC(=O)Cn1cc(C(=O)Nc2ccc(C)c(C)c2)c(=O)c2ccc(C)nc21`, with 966 s.
As for `O=C(NCc1cccc(Br)c1)C1CCCN(c2ccc(=O)n(-c3cccc(F)c3)n2)C1` (centres undefined), the RP-LC retention time is 899 s.
`CCOC(=O)NCC1CCN(S(C)(=O)=O)CC1` showed an RP-LC retention time of 603 s.
The result for `CC(C)S(=O)(=O)c1cccc(C(=O)Nc2nc(-c3cc([N+](=O)[O-])cs3)cs2)c1` reads 914 s; that for `COc1ccc(NC(=O)N2CCc3c(C(=O)NC4CCN(C)CC4)cccc32)cc1`, 603 s; that for `Cn1c(=O)c2nc(SCCC(=O)Nc3ccc(F)cc3)n(C)c2n(C)c1=O`, 690 s.
The result for `CCCS(=O)(=O)c1ccc(NCc2ccc(OC)c(OC)c2)nn1` reads 706 s; that for `Cc1ccc2c(=O)c3cccc(CC(=O)O)c3oc2c1C`, 860 s.
Turning to `Cc1nn(C(C)C(=O)NC(C)C)c(=O)c2nn(-c3ccccc3)c(C)c12` (centres undefined), the RP-LC retention time stood at 739 s.
The result for `CC(=O)Nc1ccc(S(=O)(=O)N2CC=C(c3cn(C(C)C)c4ncccc34)CC2)cc1` reads 854 s.
The result for `COCC(=O)Nc1nnc(SCc2nnc(-c3ccc4c(c3)OCO4)o2)s1` reads 717 s; that for `COc1cccc(-c2noc(C3CCCN3C(=O)Nc3cc(Cl)ccc3OC)n2)c1` (centres undefined), 1130 s.
For the molecule `CN(C)c1ccc(-c2nc3ccc(Cl)cn3c2Nc2ccc3c(c2)OCO3)cc1`, the RP-LC retention time was 764 s.
Then `CC(C)c1nnc(NC(=O)C2CC(=O)N(CCc3c[nH]c4ccc(F)cc34)C2)s1` (centres undefined), with 746 s; and `CC(C)(C)c1csc(-c2csc(S(=O)(=O)NC3CCCCCC3)c2)n1`, with 1010 s; and `CN(CC1(C)CCOCC1)C(=O)NCc1cccc(F)c1`, with 731 s.
Then `Cc1ccc(C)c(NC(=O)N2CCC(N3CCN(Cc4ccc(F)cc4)C(=O)C3=O)CC2)c1`, with 754 s.
`COc1cc(C(=O)N2CCC(CC(=O)N3CCOCC3)CC2)cc(OC)c1OC`: the RP-LC retention time was 618 s.
The result for `O=C(Nc1cccc(C(F)(F)F)c1)Nc1nc(-c2ccccc2)cs1` reads 1140 s; that for `CCC1CCCCN1CCCNC(=O)CCc1cc2cc(C)ccc2[nH]c1=O` (centres undefined), 600 s; that for `Cc1cc2c(cc1S(=O)(=O)N1CCCC1C(=O)Nc1ccc(F)cc1F)OCC(=O)N2` (centres undefined), 774 s.

For the origin of these results see the METLIN SMRT retention time set (Domingo-Almenara et al. 2019).
